Like-named read-outs stand apart in the source and are kept apart here.

In test [1] the target is T1, fatty acid amide hydrolase (r-FAAH) (Rattus norvegicus, UniProt P97612). As to the kind of experiment: biochemical.
Test [2] addresses T1, fatty acid amide hydrolase (r-FAAH).

T1 sequence (P97612 whole entry): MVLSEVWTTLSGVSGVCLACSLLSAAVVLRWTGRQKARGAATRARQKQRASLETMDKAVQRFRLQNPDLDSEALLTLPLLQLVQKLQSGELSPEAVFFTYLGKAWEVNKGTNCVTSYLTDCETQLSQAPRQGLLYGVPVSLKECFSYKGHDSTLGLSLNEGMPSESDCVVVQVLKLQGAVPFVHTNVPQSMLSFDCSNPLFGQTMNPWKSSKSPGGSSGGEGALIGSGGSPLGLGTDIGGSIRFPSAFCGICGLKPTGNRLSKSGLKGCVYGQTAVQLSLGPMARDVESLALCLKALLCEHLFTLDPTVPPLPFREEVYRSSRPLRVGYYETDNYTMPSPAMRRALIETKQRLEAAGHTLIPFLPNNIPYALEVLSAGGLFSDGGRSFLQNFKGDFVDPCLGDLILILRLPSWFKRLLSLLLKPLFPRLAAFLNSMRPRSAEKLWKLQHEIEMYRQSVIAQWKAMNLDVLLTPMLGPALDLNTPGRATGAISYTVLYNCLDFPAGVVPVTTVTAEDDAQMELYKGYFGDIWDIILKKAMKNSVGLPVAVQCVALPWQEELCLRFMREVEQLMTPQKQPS

For the compound `NC(=O)c1cccc(-c2cc(OC(=O)NC3CCCCC3)ccc2OC(F)F)c1` [ARN14280, [3-(3-carbamoylphenyl)-4-(difluoromethoxy)phenyl] N-cyclohexylcarbamate], the IC50 – broadly, the midpoint of a concentration-inhibition curve – in test [1] was 1.5 ± 0.3 nM.
In turn, `CNC(=O)c1cccc(-c2cc(OC(=O)NC3CCCCC3)ccc2F)c1` [ARN14633, [4-fluoro-3-[3-(methylcarbamoyl)phenyl]phenyl] N-cyclohexylcarbamate] displayed an IC50 in test [2] of 1.4 ± 0.3 nM.

The values above are taken from PMC9264488, “Potentiation of endocannabinoids and other lipid amides prevents hyperalgesia and inflammation in a pre-clinical model of migraine” (The Journal of Headache and Pain, 2022).
